From patent publication US11524012B1, “Quinolone analogs and their salts, compositions, and method for their use” (Senhwa Biosciences, Inc., priority 2018, dated 2022)

Legend:
[1] = Plasma protein binding; type: in vitro ADME, human; settings: independent of drug concentration
Description: The plasma concentrations in the mouse are magnitude higher than in rat, dog and monkey. These trends are qualitatively similar to those seen in the plasma protein binding assays. Compound I is highly bound (>99%) to human plasma proteins, and this binding is independent of drug concentration. Compound I (1 μM) partitioning to blood cells compared to plasma was evaluated in human whole blood, and was determined to prefer plasma (˜65%) to the cellular compartment (˜30%).

[2] = Population PK model in mice (NONMEM); type: in vivo, ICR and athymic nude (nu/nu) mice
Description: The current population analysis utilized non-linear mixed effects modeling to quantify the PK and pharmacodynamics (PD) of Compound I. This approach involved estimation of fixed-effect (mean) parameters, together with inter-individual and residual variability for each of the models developed. Where relevant, covariate effects were incorporated to potentially explain the random sources of variability. An additional benefit of this modeling approach is the ability to appropriately handle sparse or unbalanced data, particularly where practical considerations prohibit intensive sampling. Finally, non-linear mixed effects modeling allows for the stochastic simulation of PK-PD to assist with dose recommendation in target populations of interest.
A total of four non-clinical studies were used to characterize PK of Compound I in mice. The dosing regimens included both intravenous (IV) and oral (PO) routes of administration at various dosing schedules. Animal strains evaluated included wild-type ICR and athymic nude (nu/nu) mice (Table 28).
Several PO absorption and disposition models were investigated to describe the PK of Compound I following IV or PO dosing to mice. In addition, the model included a pathway for enterohepatic recirculation, based on the known pharmacology of Compound I.
Total bodyweight was incorporated a priori into the structural base model to allow for parameter comparison between mice and humans. For this, the disposition parameters were allometrically scaled using Equation 1 below: […]
The input after PO dosing was described by first-order absorption. Drug disposition was characterized by a 3 compartment model, with an additional pathway describing known enterohepatic recirculation.
where compartments 1 to 5 represent the PO dosing, central (plasma), 1st peripheral, 2nd peripheral, and gall bladder, respectively. The FLAG component in Equations 2 and 6 is a reserved variable in the modeling software used that allows for estimation of the start and end times of enterohepatic recycling. All parameters are defined in Table 31.
The kinetics of Compound I concentration and xenograft volume was analyzed using non-linear mixed effects modeling (NONMEM® version 7.3; ICON Development Solutions, Maryland, USA). For PK model development, Compound I total drug concentrations were logarithmically transformed to efficiently accommodate the large range of magnitude in observed data. In contrast, xenograft volumes were modeled in the untransformed scale. All population analyses were performed using first-order conditional estimation with interaction, with the ADVAN13 subroutine (TOL=9) to solve the differential equations. For mouse PK model, the reserved FLAG term was used to define the start and end times of enterohepatic recycling using MTIME.
A total of 43 ICR wild-type and nu/nu mice were used to characterize the plasma PK of Compound I following IV and PO bolus administration. The absorption of Compound I after PO dosing was adequately described by a first-order input model. […] The disposition of Compound I was characterized by a 3-compartment model, with an additional enterohepatic recirculation pathway to accommodate its known pharmacology (FIG. 20).
Inclusion of a pathway to describe known enterohepatic circulation was particularly challenging due to the small number of mice available for population PK analysis. A further limitation was the lack of an apparent ‘double-peak’ in the concentration-time profiles for all mice. Consequently, to support the estimation of this pathway, it was assumed that: • Recirculation begins immediately after dosing with all of the Compound I clearance diverted to the gall bladder for the estimated duration of enterohepatic recycling; • The kinetics of transfer for gall bladder to gut is rapid.

[3] = Pharmacokinetic parameters in preclinical species; type: in vivo, dogs; settings: Dog, IV, 5.8 mg/kg, mean of 3 animals
[4] = Toxicokinetics in dog toxicity study (IV infusion); type: in vivo
Description: Dogs: Pharmacokinetic properties of Compound I were evaluated in a dog toxicity study across a range of IV doses: 15, 30, and 45 mg/kg/dose. A ready-to-use solution of Compound I (see Example 1) was administered by intravenous infusion via a catheter placed into the cephalic vein once per week over a period of 1 hour on Days 1, 8, and 15. Blood samples for TK analysis were collected predose, 0.25, 0.5, and 1 hour (from the start of infusion), and then at 0.5, 1, 2, 3, 5, 7, 9, 11, 23, 35, and 47 hours post end of infusion on Day 1, and predose, 1 hour (end of infusion), and then at 47 hours post end of infusion on Day 15. The TK parameters were calculated for each animal, using individual plasma concentration-time data of Compound I. TK parameters derived for the first (Day 1) dose were tabulated and summarized by sex within dose group (Table 27).

[5] = mice, allometrically scaled to 70 kg, population mean Estimate (% RSE)
[6] = mice, population mean Estimate (% RSE)
[7] = nu/nu relative to ICR mice, population mean Estimate (% RSE)

Compound: Cc1cnc(CNC(=O)c2c(=O)c3ccc(N4CCCN(C)CC4)nc3n3c2sc2ccccc23)cn1 [Compound I, 2-(4-Methyl-[1,4]diazepan-1-yl)-5-oxo-5H-7-thia-1,11b-diaza-benzo[c]fluorene-6-carboxylic acid (5-methyl-pyrazin-2-ylmethyl)-amide]
- bound to human plasma proteins [1]: > 99%
- bioavailability ([2]; ICR and athymic nude (nu/nu), mouse, plasma, po, population estimate, read-out: Absolute bioavailability via the PO route): 24.8%
- central volume, nu/nu relative to the ICR wild-type strain ([2]; covariate analysis): ~5 fold
- clearance, nu/nu relative to the ICR wild-type strain ([2]; covariate analysis): approximately 4 fold
- CL, Clearance from the central compartment [2, 5]: 0.330 (13.3) L/h/70 kg
- CLD1, 1st peripheral distribution clearance [2, 5]: 0.145 (29.9) L/h/70 kg
- CLD2, 2nd peripheral distribution clearance [2, 5]: 0.194 (33.7) L/h/70 kg
- VP1, 1st peripheral distribution volume [2, 5]: 7.51 (22.7) L/70 kg
- VP2, 2nd peripheral distribution volume [2, 5]: 149 (21.0) L/70 kg
- Vc, Central compartment distribution volume [2, 5]: 26.2 (15.1) L/70 kg
- Vc, Central compartment distribution volume, % BSV ([2]; mice, between-subject variability Estimate (% RSE)): 44.5 (22.8) %
- Foral, Absolute bioavailability after PO dosing [2, 6]: 0.248 (9.7)
- HRCTime, Enterohepatic recirculation time [2, 6]: 3.66 (10.7) h
- ka, First-order rate constant for PO absorption [2, 6]: 1.29 (11.5) 1/h
- FCL_NU, Fold change in clearance (nu/nu mice) [2, 7]: 3.99 (14.8)
- FVC_NU, Fold change in central volume (nu/nu mice) [2, 7]: 4.78 (8.8)
- clearance (estimated mean) ([2]; population estimate, allometrically scaled): 0.330 L/h/70 kg
- CIs [3]: 1,896 mL/hr/kg
- Cmax ([3]; plasma): 861 ng/mL
- half-life ([3]; plasma): 9 h
- AUC(0-t) ([3]; plasma, read-out: AUC24hr): 2950 ng·h/mL
- Vd ([3]; plasma, read-out: Vss): 11.7 L/kg
- AUClast dose proportionality (in words) ([4]; IV 15-45 mg/kg/dose): not dose proportional
- half-life ([4]; both sexes, dog, plasma, IV infusion 15, 30, 45 mg/kg/dose, Day 1, read-out: Terminal half-life): 7 to 18.2 h
